Values quoted from earlier work in patent US11406678B2, “Simmondsin formulation” (priority 2016, dated 2022).

Details: rats, 25 mg or 50 mg simmondsin per kg body weight

## CO[C@H]1[C@@H](OC)C[C@@H](O[C@@H]2O[C@H](CO)[C@@H](O)[C@H](O)[C@H]2O)/C(=C\C#N)[C@@H]1O [simmondsin]
  weight loss: no effect on the weight loss
